Patent US20180154170A1, “METHODS AND COMPOSITIONS FOR TREATING MENTAL DISORDERS AND CONDITIONS” (priority 2015, published 2018)

Experiments:
[1] = system: AMPA and NMDA receptors in the NAcc; experiment: Tail suspension test with optical reactivation of dentate gyrus positive memory cells, glutamate antagonists infused into the NAcc; type: in vivo; conditions: stressed mice; bilateral infusion into NAcc (NBQX 22.3 mM, AP5 38.04 mM, 0.2 μl per hemisphere), 20 min before behavior; compared with saline
Procedure: Glutamate antagonists were bilaterally infused into the NAcc as follows: 0.2 μl per hemisphere of NBQX at a concentration of 22.3 mM to antagonize AMPA (α-amino-3-hydroxy-5-methyl-4-isoxazole propionic acid) receptors and 0.2 μl per hemisphere of AP5 at a concentration of 38.04 mM to antagonize NMDA (N-methyl-D-aspartate) receptors. Dopamine receptor antagonists were bilaterally infused into the NAcc as follows: 0.2 μl SCH23390 at a concentration of 6.16 mM to antagonize D1-like receptors and 0.2 μl raclopride at a concentration of 2.89 mM to antagonize D2-like receptors. A 26-gauge stainless steel double internal cannula (PlasticsOne) was used to bilaterally infuse each drug; the internal cannula was connected with a microsyringe pump by a PE20 tube to control the injection rate at 100 nl min^−1. The injection cannula was left connected for 5 min before removal to allow for diffusion. Finally, all behavior was performed 20 min following drug infusion.
Fibre optic implants on experimental mice were plugged into a patch cord before the tail suspension test. Each subject was hung by its tail from a bar 40 cm from the ground with a single piece of autoclave tape. […] An experimenter blind to each mouse condition and light treatment scored all the tail suspension videos by measuring the total time in seconds that each mouse spent struggling throughout the protocol.

[2] = system: magnocellular and parvocellular BLA neurons; conditions: bath application 10 μM; cells clamped at 0 mV; 10 Hz train; n=6 magnocellular, n=6 parvocellular
Procedure: Male mice (mean-PND 45 days) were anesthetized by isoflurane and their brains were dissected. By using a vibratome (VT1000S, Leica) 300 μm-thick parasagittal slices containing the basolateral amygdala were prepared in oxygenated cutting solution at ˜4° C. Slices were then incubated at −23° C. in oxygenated artificial cerebrospinal fluid (ACSF). The cutting solution contained 3 mM KCl, 0.5 mM CaCl2, 10 mM MgCl2, 25 mMNaHCO3, 1.2 mM NaHPO4, 10 mM d-glucose, 230 mM sucrose, saturated with 95% O/5% CO2 (pH 7.3, osmolarity 340 mOsm). […]
Whole-cell recordings in current-clamp or voltage-clamp mode were performed by using an infrared differential interference contrast microscope (BX51, Olympus) with a water immersion 40× objective (N.A. 0.8), and equipped with four automatic manipulators (Luigs & Neumann) and a CCD camera (Orca R2, Hamamatsu). […] Access resistance was monitored throughout the duration of the experiment and data acquisition was suspended whenever the resting membrane potential was depolarized above −50 mV or the access resistance was beyond 20 MΩ. […]
Optogenetic stimulation was achieved through a 460-nm LED light source (XLED1, Lumen Dynamics) driven by TTL input with a delay onset of 25 μs (subtracted off-line). […] In voltage-clamp cells were held at 0 mV for IPSC measurements, whereas, in current mode, EPSP and action potentials were measured at resting potentials. […]

[3] = reported in reference 28; cited from earlier work

| Structure (SMILES) | behavioral effects of optically reactivating dentate gyrus cells labelled by a positive experience in the TST [1] | other results |
| --- | --- | --- |
| NC(CCCP(=O)(O)O)C(=O)O (stereo not shown) [AP5] | blocked | – |
| NS(=O)(=O)c1cccc2c1c([N+](=O)[O-])cc1nc(O)c(O)nc12 [NBQX] | blocked | – |
| COc1ccc(-c2ccc(=N)n(CCCC(=O)O)n2)cc1 [gabazine] | – | inhibitory postsynaptic currents (IPSCs) evoked by optogenetic stimulation of Ppp1r1b-ChR2+ and Rspo2-ChR2+ fibers [2]: blocked |
| CNC1(c2ccccc2Cl)CCCCC1=O (stereo not shown) [ketamine] | – | antidepressant effect in patients [3]: rapid effects in a subset of patients |
